Tested on: P388
Test: Cytotoxicity against mouse P388 cells
Type: functional, cell-based

Row | Compound | IC50 [µM]
1 | Cn1c(-c2cn(C)c3ccccc23)cnc1-c1cn(C)c2cc(Br)ccc12 [N-METHYL NORTOPSENTIN B] | 0.8
2 | Brc1ccc2c(-c3c[nH]c(-c4c[nH]c5cc(Br)ccc45)n3)c[nH]c2c1 [NORTOPSENTIN A] | 4.5
3 | Brc1ccc2c(-c3nc(-c4c[nH]c5ccccc45)c[nH]3)c[nH]c2c1 [NORTOPSENTIN B] | 4.5
4 | Brc1ccc2c(-c3c[nH]c(-c4c[nH]c5ccccc45)n3)c[nH]c2c1 [NORTOPSENTIN C] | 4.5
